Test results as given in US9216999B2, “Substituted pyrrolo[2,3-h][1,6]naphthyridines and compositions thereof as JAK inhibitors” (priority 2011, dated 2015).
Like-named read-outs stand apart in the source and are kept apart here.

Legend:
[1] = target: Tyk2 (Homo sapiens (Human), UniProt P29597); test: Tyk2 enzyme assay (Assay Example^b 1)
[2] = target: JAK3 (Homo sapiens (Human), UniProt P52333); test: JAK3 enzyme assay (Assay Example^b 1)
[3] = target: JAK1 (Homo sapiens (Human), UniProt P23458); test: JAK1 enzyme assay (Assay Example^b 1)
[4] = target: JAK2 (Homo sapiens (Human), UniProt O60674); test: JAK2 enzyme assay (Assay Example^b 1)
[5] = IC50 (μM) TYK2, Table^b 80, ATP 100 μM
[6] = IC50 (μM) JAK1, Table^b 80, ATP 100 μM
[7] = IC50 (μM) JAK3, Table^b 80, ATP 100 μM
[8] = IC50 (μM) JAK3, Table^b 78, ATP 100 μM
[9] = IC50 (μM) JAK1, Table^b 78, ATP 100 μM
[10] = IC50 (μM) TYK2, Table^b 79, ATP 100 μM
[11] = IC50 (μM) JAK2, Table^b 80, ATP 100 μM

Sequence of JAK3 (P52333 whole entry): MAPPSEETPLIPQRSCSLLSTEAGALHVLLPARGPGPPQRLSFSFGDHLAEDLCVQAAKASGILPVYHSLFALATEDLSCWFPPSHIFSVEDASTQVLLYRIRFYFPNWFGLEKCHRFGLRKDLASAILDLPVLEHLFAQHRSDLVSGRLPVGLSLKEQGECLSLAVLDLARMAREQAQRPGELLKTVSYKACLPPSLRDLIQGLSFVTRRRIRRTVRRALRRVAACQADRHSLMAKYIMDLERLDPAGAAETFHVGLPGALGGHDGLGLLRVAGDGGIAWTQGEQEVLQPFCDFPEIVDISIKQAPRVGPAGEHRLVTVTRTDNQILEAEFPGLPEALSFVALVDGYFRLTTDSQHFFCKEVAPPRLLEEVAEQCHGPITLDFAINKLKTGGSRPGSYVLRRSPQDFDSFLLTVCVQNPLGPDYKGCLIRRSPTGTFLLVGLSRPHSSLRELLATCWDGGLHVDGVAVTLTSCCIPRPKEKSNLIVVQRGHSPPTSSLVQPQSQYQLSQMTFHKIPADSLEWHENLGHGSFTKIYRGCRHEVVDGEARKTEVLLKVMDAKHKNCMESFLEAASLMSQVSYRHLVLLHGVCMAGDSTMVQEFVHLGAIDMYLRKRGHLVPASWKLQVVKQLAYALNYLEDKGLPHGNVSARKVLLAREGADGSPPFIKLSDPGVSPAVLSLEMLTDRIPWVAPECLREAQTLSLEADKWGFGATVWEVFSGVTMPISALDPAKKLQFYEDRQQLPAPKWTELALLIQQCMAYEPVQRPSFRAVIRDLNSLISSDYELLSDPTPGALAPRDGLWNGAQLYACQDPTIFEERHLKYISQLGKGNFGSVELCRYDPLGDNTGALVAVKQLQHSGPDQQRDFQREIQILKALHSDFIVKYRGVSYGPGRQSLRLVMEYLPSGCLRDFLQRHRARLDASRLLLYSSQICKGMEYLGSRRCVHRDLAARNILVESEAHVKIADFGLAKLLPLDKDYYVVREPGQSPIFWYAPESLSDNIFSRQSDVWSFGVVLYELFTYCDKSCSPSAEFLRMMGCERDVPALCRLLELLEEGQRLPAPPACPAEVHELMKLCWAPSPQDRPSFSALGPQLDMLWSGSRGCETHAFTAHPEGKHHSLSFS
Sequence of Tyk2 (P29597 whole entry): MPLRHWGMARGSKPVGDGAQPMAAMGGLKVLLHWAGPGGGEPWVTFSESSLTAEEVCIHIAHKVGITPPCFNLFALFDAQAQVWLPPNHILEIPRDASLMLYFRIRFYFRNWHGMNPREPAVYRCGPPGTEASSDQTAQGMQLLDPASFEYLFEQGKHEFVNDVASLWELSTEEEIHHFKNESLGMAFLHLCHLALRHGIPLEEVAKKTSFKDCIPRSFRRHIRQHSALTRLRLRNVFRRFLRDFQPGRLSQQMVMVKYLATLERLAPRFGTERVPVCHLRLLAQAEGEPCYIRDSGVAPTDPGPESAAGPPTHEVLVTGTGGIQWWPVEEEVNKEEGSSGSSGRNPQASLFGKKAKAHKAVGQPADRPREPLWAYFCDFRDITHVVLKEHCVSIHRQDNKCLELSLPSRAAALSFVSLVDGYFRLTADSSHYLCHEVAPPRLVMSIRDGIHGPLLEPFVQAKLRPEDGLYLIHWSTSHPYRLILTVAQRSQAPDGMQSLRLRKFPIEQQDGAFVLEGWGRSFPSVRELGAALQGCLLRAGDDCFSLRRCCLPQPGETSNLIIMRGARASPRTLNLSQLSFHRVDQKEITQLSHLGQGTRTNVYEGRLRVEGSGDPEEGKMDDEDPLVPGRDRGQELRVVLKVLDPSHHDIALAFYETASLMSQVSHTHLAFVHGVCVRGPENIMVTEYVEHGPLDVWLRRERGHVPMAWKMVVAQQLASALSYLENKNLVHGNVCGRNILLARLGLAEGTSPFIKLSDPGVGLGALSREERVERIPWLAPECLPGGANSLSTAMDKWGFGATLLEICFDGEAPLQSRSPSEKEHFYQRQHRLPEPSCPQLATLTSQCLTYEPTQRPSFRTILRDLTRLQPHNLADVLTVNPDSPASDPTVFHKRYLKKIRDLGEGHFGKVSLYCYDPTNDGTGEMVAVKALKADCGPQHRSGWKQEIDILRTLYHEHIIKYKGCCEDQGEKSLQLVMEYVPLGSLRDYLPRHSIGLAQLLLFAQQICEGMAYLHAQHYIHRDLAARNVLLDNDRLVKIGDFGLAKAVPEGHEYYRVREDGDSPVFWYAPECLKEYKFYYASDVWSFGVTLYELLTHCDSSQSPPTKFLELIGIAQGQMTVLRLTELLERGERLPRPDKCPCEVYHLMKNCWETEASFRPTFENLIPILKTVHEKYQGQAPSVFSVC

**Q.** How did the IC50 [1, 5] turn out when O=C1NCc2cnc3[nH]ccc3c2N1C1CCN(Cc2cccnc2)CC1 [compound 61] was run?
**A.** Its IC50 is 3.6 µM.

**Q.** How did the IC50 ([2]; IC50 (μM) JAK3, ATP 100 μM) turn out when N#CCC[C@H]1CC[C@H](n2c(=O)[nH]c(=O)c3cnc4[nH]ccc4c32)CC1 [Synthetic Example^b 134, 3-[trans-4-(2,4-Dioxo-2,3,4,7-tetrahydro-1H-pyrrolo[3′,2′:5,6]pyrido[4,3-d]pyrimidin-1-yl)cyclohexyl]propanenitrile] was run?
**A.** Its IC50 is 0.81 µM.

**Q.** And the IC50 ([3]; IC50 (μM) JAK1, ATP 100 μM)?
**A.** The IC50 was 0.002 µM.

**Q.** What about the IC50 ([1]; IC50 (μM) TYK2, ATP 100 μM) of the same compound?
**A.** The IC50 was 0.032 µM.

**Q.** With O=C1NCc2cnc3[nH]ccc3c2N1C1CCN(Cc2ccc(C(F)(F)F)cc2)CC1 [compound 63] as the compound, how does the IC50 [3, 6] read?
**A.** The IC50 was 0.12 µM.

**Q.** O=c1[nH]c(=O)n([C@H]2CC[C@H](CN3CC[C@@H](O)C3)CC2)c2c1cnc1[nH]ccc12 [compound 112] was tested. Which IC50 ([3]; IC50 (μM) JAK1, ATP 100 μM) did it give?
**A.** The IC50 was 0.0026 µM.

**Q.** For O=c1c2cnc3[nH]ccc3c2n(C2CCCCC2)c(=O)n1CC(F)(F)F [Synthetic Example^b 139, 1-cyclohexyl-3-(2,2,2-trifluoroethyl)-1H-pyrrolo[3′,2′:5,6]pyrido[4,3-d]pyrimidine-2,4(3H,7H)-dione], which IC50 ([2]; IC50 (μM) JAK3, ATP 100 μM) is on record?
**A.** Its IC50 is > 1 µM.

**Q.** And the IC50 ([3]; IC50 (μM) JAK1, ATP 100 μM)?
**A.** Its IC50 is 0.1 µM.

**Q.** What about the IC50 ([1]; IC50 (μM) TYK2, ATP 100 μM) of the same compound?
**A.** The IC50 was > 1 µM.

**Q.** How did the IC50 [2, 7] turn out when CC1CCN(C(=O)C2CCC(C(C)(C)C)CC2)CC1n1ccc(=O)c2cnc3[nH]ccc3c21 (single isomer, unassigned) [Synthetic Example^b 48a, 1-{1-[4-(tert-Butyl)cyclohexanecarbonyl]-4-methylpiperidin-3-yl}-1H-pyrrolo[2,3-h][1,6]naphthyridin-4(7H)-one] was run?
**A.** The IC50 was > 1 µM.

**Q.** What about the IC50 [3, 6] of the same compound?
**A.** The IC50 was 0.14 µM.

**Q.** What about the IC50 [1, 5] of the same compound?
**A.** Its IC50 is > 1 µM.

**Q.** With Cc1nc(CN2CCC(n3ccc(=O)c4cnc5[nH]ccc5c43)CC2)cs1 [compound 86] as the compound, how does the IC50 [3, 6] read?
**A.** Its IC50 is 0.043 µM.

**Q.** Which IC50 ([3]; IC50 (μM) JAK1, ATP 100 μM) does the source give for O=c1[nH]c(=O)n(C2CCN(CCNCC3CC3)CC2)c2c1cnc1[nH]ccc12 [compound 110] here?
**A.** Its IC50 is 0.42 µM.

**Q.** What about the IC50 ([4]; IC50 (μM) JAK2, ATP 100 μM) of the same compound?
**A.** The IC50 was > 1 µM.

**Q.** How did the IC50 ([2]; IC50 (μM) JAK3, ATP 100 μM) turn out when O=c1[nH]c(=O)n(C2C3CC4CC2CC(O)(C4)C3)c2c1cnc1[nH]ccc12 (stereo not shown) [compound 105] was run?
**A.** Its IC50 is > 1 µM.

**Q.** And the IC50 ([4]; IC50 (μM) JAK2, ATP 100 μM)?
**A.** The IC50 was > 1 µM.

**Q.** And the IC50 ([1]; IC50 (μM) TYK2, ATP 100 μM)?
**A.** The IC50 was > 1 µM.

**Q.** Which results are given for C[C@@H]1CCN(C(=O)CC#N)C[C@@H]1N1COCc2cnc3[nH]ccc3c21 (racemic) [compound 16]?
**A.** IC50 [2, 8]: 0.11 µM; IC50 [3, 9]: 0.038 µM

**Q.** N#Cc1ccc(CN2CCC(N3C(=O)NCc4cnc5[nH]ccc5c43)CC2)cc1 [compound 62] was tested. Which IC50 [2, 7] did it give?
**A.** The IC50 was > 1 µM.

**Q.** And the IC50 [1, 5]?
**A.** The IC50 was > 1 µM.

**Q.** What does the source list for O=c1[nH]c(=O)n(C2CCC(CNCC3CC3)CC2)c2c1cnc1[nH]ccc12 (stereo not shown) [compound 117]?
**A.** IC50 ([2]; IC50 (μM) JAK3, ATP 100 μM): > 1 µM; IC50 ([3]; IC50 (μM) JAK1, ATP 100 μM): 0.03 µM

**Q.** For CC1OCN(C2CCCCC2)c2c1cnc1[nH]ccc21 (stereo not shown) [compound 1], which IC50 [2, 8] is on record?
**A.** The IC50 was 2 µM.

**Q.** What about the IC50 [3, 9] of the same compound?
**A.** Its IC50 is 0.38 µM.

**Q.** What about the IC50 [1, 10] of the same compound?
**A.** Its IC50 is 4.1 µM.

**Q.** What does the source list for O=C1NCc2cnc3[nH]ccc3c2N1C1CCN(Cc2ccccc2)CC1 [compound 59]?
**A.** IC50 [2, 7]: 2.1 µM; IC50 [1, 5]: 4.3 µM

**Q.** For N#CCC(=O)N(CC(F)(F)F)C[C@H]1CC[C@H](n2c(=O)[nH]c(=O)c3cnc4[nH]ccc4c32)CC1 [Synthetic Example^b 135, 2-Cyano-N-{[trans-4-(2,4-dioxo-2,3,4,7-tetrahydro-1H-pyrrolo[3′,2′:5,6]pyrido[4,3-d]pyrimidin-1-yl)cyclohexyl]methyl}-N-(2,2,2-trifluoroethyl)acetamide], which IC50 ([2]; IC50 (μM) JAK3, ATP 100 μM) is on record?
**A.** Its IC50 is 0.5 µM.

**Q.** What does the source list for O=c1ccn(C2CCCCC2)c2c1cnc1[nH]ccc12 [compound 3]?
**A.** IC50 [2, 8]: 0.22 µM; IC50 [3, 9]: 0.017 µM

**Q.** Which results are given for O=c1ccn(C2CCCCC2)c2c1cnc1[nH]cnc12 [compound 20]?
**A.** IC50 [3, 9]: 0.28 µM; IC50 [1, 10]: 0.76 µM

**Q.** For O=c1ccn(C2CCN(Cc3ccc(C(F)(F)F)o3)CC2)c2c1cnc1[nH]ccc12 [compound 71], which IC50 [2, 7] is on record?
**A.** The IC50 was 0.46 µM.

**Q.** O=C(CC(F)(F)F)N(CC(F)(F)F)C[C@H]1CC[C@H](n2c(=O)[nH]c(=O)c3cnc4[nH]ccc4c32)CC1 [compound 155] was tested. Which IC50 ([3]; IC50 (μM) JAK1, ATP 100 μM) did it give?
**A.** The IC50 was 0.0021 µM.

**Q.** What about the IC50 ([4]; IC50 (μM) JAK2, ATP 100 μM) of the same compound?
**A.** The IC50 was 0.055 µM.

**Q.** For C[C@@H]1CCN(C(=O)c2ccccc2C(F)(F)F)C[C@@H]1n1ccc(=O)c2cnc3[nH]ccc3c21 (racemic) [compound 30], which IC50 [2, 7] is on record?
**A.** Its IC50 is > 1 µM.

**Q.** For O=c1[nH]c(=O)n([C@H]2CC[C@H](CNCC3(O)CCCCC3)CC2)c2c1cnc1[nH]ccc12 [compound 126], which IC50 ([2]; IC50 (μM) JAK3, ATP 100 μM) is on record?
**A.** Its IC50 is > 1 µM.

**Q.** What does the source list for O=C(Nc1nncs1)N1CCC(N2C(=O)NCc3cnc4[nH]ccc4c32)CC1 [compound 64]?
**A.** IC50 [3, 6]: 0.012 µM; IC50 [4, 11]: 0.02 µM; IC50 [1, 5]: 0.17 µM

**Q.** With C[C@@H]1CCN(S(=O)(=O)CC(F)(F)F)C[C@@H]1n1ccc(=O)c2cnc3[nH]ccc3c21 (racemic) [compound 11] as the compound, how does the IC50 ([4]; IC50 (μM) JAK2, Table^b 79, ATP 100 μM) read?
**A.** Its IC50 is 0.033 µM.

**Q.** With CC1CCN(C(=O)C2CCC(C(C)(C)C)CC2)CC1n1ccc(=O)c2cnc3[nH]ccc3c21 (single isomer, unassigned) [Synthetic Example^b 48b, 1-{1-[4-(tert-Butyl)cyclohexanecarbonyl]-4-methylpiperidin-3-yl}-1H-pyrrolo[2,3-h][1,6]naphthyridin-4(7H)-one] as the compound, how does the IC50 [2, 7] read?
**A.** Its IC50 is 0.36 µM.

**Q.** And the IC50 [3, 6]?
**A.** The IC50 was 0.094 µM.

**Q.** And the IC50 ([1]; read-out: IC50 (μM) TYK2, Table^b 80, ATP 100 μM)?
**A.** The IC50 was > 1 µM.

**Q.** For O=c1[nH]c(=O)n(C2CCN(CCC3CCOCC3)CC2)c2c1cnc1[nH]ccc12 [compound 93], which IC50 ([2]; IC50 (μM) JAK3, ATP 100 μM) is on record?
**A.** The IC50 was > 1 µM.

**Q.** Cc1cn([C@H]2CN(Cc3ccccc3)CC[C@H]2C)c2c(cnc3[nH]ccc32)c1=O (racemic) [compound 23] was tested. Which IC50 [3, 6] did it give?
**A.** Its IC50 is 0.035 µM.

**Q.** Which IC50 ([2]; IC50 (μM) JAK3, ATP 100 μM) does the source give for CC(CO)(CO)Cn1c(=O)c2cnc3[nH]ccc3c2n(C2CCCCC2)c1=O [compound 151] here?
**A.** The IC50 was > 1 µM.

**Q.** Which results are given for O=C1NCc2cnc3[nH]ccc3c2N1C1CCN(Cc2cncs2)CC1 [compound 66]?
**A.** IC50 [3, 6]: 0.08 µM; IC50 [4, 11]: 0.14 µM; IC50 [1, 5]: 0.99 µM
